# Source: patent US8143212B2 (Vicuron Pharmaceuticals Inc., priority 2002, dated 2012)
# Read-outs that look alike come from different tables or passages of the source.
# Assays:
# [1] = system: E coli; experiment: MIC, microbiological activity (Table 3); format: cell-based
# [2] = system: P vulgaris; experiment: MIC, microbiological activity (Table 3); format: cell-based; conditions: L 79 P vulgaris; read-out: MIC
# [3] = system: P aeruginosas; experiment: MIC, microbiological activity (Table 3); format: cell-based; conditions: L 4 P aeruginosas ATCC10145; read-out: MIC
# [4] = rat, in vivo
# Protocol: Excreta and more than 40 different tissues were collected through 70 days post-administration, and the tissue distribution and pharmacokinetics of drug-derived radioactivity were determined.
# Rats (3 per time-point) were euthanized at 12, 24, 48, 72, 96, 120, 144, 168, 336, 840, 1176 and 1680 hours post dose for collection of blood, plasma, and tissues (including carcass). All samples were analyzed by LSC.
# As part of the QTD studies, bile samples were collected from bile duct cannulated rats (4 animals) through 384 h (16 days) post-dose.
# [5] = clinical; conditions: human, in vivo; for AUC(0-inf): AUC0-inf; for clearance: CL; for Vd: Vss
# Protocol: The peak concentrations (Cmax) were obtained directly from the observed data. The area under the plasma concentration-time curve (AUC) were calculated using the linear trapezoidal rule.
# Clinical Study VER001-13 examined subjects with mild and moderate renal impairment and Clinical Study VER001-1 examined subjects with severe renal impairment and subjects with end-stage renal disease (ESRD). Matched control subjects were enrolled in all studies. […] Subjects with ESRD were dependent on dialysis through the course of the study (3 times weekly).
# [6] = clinical; conditions: human, in vivo
# Description: The study enrolled otherwise healthy subjects with mild, moderate, or severe hepatic impairment (Child-Pugh scores 5 to 6, 7 to 9, and 10 to 15, respectively) and matched control subjects with normal hepatic function.
# [7] = Plasma pharmacokinetics in thigh-infected neutropenic mice; conditions: intraperitoneal
# Protocol: Neutropenia in this and all other studies was produced by injections of cyclophosphamide, 150 mg/kg 4 days prior to study, 100 mg/kg 1 day prior to study and 100 mg/kg every 48 h after start of infection until end of study. Neutrophil counts remained less than 100/mm^3 for the duration of study. Doses of 2.5, 5, 10, 20; 40, and 80 mg/kg were studied. Drug was administered by intraperitoneal injection of 0.2 ml volume. Blood was removed from groups of three mice by retroorbital aspiration into heparinized capillary tubes at 0.5, 1, 2, 4, 6, 24, 48, 72, and 96 hours after dosing. […] AUC was calculated by the trapezoidal rule from mean concentrations.
# [8] = system: S. aureus; experiment: Murine thigh-infection model (time kill, dosing regimen, PK/PD; Tables 31, 32);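 note: mouse thigh infection, bacterial counts per thigh after therapy, dose-response curves fitted with a maximum effect model to give static and 1 or 2 log kill exposures, mean of 4 thighs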
# Protocol: The murine thigh-infection model was used for all organisms throughout the various studies. In this well-established model, approximately 10^6 Cfu of the study organisms are injected into one or both thighs (in 0.1 ml) two hours before starting therapy. The number of organisms in the thigh at the start of therapy in the following studies varied from 10^7.15-7.59 cfu/thigh.
# Each point represents the mean of 4 thighs. Five dose levels, ranging 16-fold were used. The dose levels used in the study against S. aureus ranged from 5 to 80 mg/kg.
# In these studies, multiple dosing regimens varying the dose and dosage interval were administered intraperitoneally in 0.2 ml volumes to groups of mice for 144 h (6 days). The dosing intervals chosen were 12, 24, 36, and 72 hours. Five different doses (two-fold increases) were used. Study against S. aureus utilized total dose (mg/kg/6d) levels ranging from 30 to 480 mg/kg/6d. […] Each point represents the mean of 4 thighs.
# Each of the dose-response curves was also mathematically characterized using a maximum effect model. […] From these parameters we could then calculate the dose required to produce a net bacteriostatic effect over the 144 hour treatment period as well as the doses necessary to produce a 1 and 2 log-reduction in organism burden.
# We determined which PK/PD parameter correlated best with efficacy by relating the number of bacteria in thigh at the end of 144 hours of therapy with [1] the peak/MIC ratio, [2] the AUC/MIC ratio, and [3] the percentage of the dosing interval that serum levels exceed the MIC for each of the dosage regimens studied. The PK/PD parameter values for those doses not specifically studied were extrapolated from the values of the nearest studied doses. […] Each point represents the mean of four thighs. […] The data illustrated in these figures were also analyzed by the same maximum dose-response model mentioned above, except that the different PK/PD parameters were used in place of the dose. The R^2 represents the coefficient of determination observed for the relationship between efficacy and each PK/PD parameter.
# [9] = Mean ± SD of S. aureus strains, q 24 h regimen
# [10] = Mean ± SD of S. aureus strains, q 72 h regimen
smiles,measurement,setting,value
CN[C@H]1C(=O)N[C@@H]2Cc3ccc(cc3)Oc3cc4cc(c3O[C@@H]3O[C@H](C(=O)O)[C@@H](O)[C@H](O)[C@H]3NC(=O)CCCCCCCCC(C)C)Oc3ccc(cc3Cl)[C@@H](O)[C@@H]3NC(=O)[C@H](NC(=O)[C@@H]4NC(=O)[C@@H](NC2=O)c2cc(cc(O)c2Cl)Oc2cc1ccc2O)c1ccc(O)c(c1)-c1c(O[C@H]2O[C@H](CO)[C@@H](O)[C@H](O)[C@@H]2O)cc(O)cc1[C@@H](C(=O)NCCCN(C)C)NC3=O [Dalbavancin],MIC,[1]; G 16440 E coli iperperm,8 µg/mL
same,MIC,"[1]; L 47 E coli SKF12140, read-out: MIC",> 32 µg/mL
same,MIC,[2],> 32 µg/mL
same,MIC,[3],> 32 µg/mL
same,blood to plasma ratio of drug-derived radioactivity,"[4]; male, Sprague-Dawley",< 1
same,recovered radioactivity in any single tissue,"[4]; male, Sprague-Dawley, 5 days",< 5 % of the dose
same,administered radioactivity retained in carcass,"[4]; male, Sprague-Dawley, 70 days",2.34%
same,time to maximum concentration (Cmax) in most tissues,[4],≤ 24 h
same,AUC,"[5]; 500 mg, AUC",24400 µg·h/mL
same,AUC,"[5]; 500 mg, AUC0-day7",6080 µg·h/mL
same,AUC,"[5]; 500 mg, AUC0-day14",10400 µg·h/mL
same,AUC(0-inf),[5]; 500 mg,24100 µg·h/mL
same,AUC,"[5]; 500 mg, AUC7",6860 µg·h/mL
same,AUC,"[5]; 500 mg, AUC14",11000 µg·h/mL
same,clearance,[5]; 500 mg,0.37 mL/min
same,Cmax,[5]; 500 mg,137 µg/mL
same,Vd,[5]; 500 mg,13.2 L
same,AUC,"[5]; 1000 mg, AUC",24500 µg·h/mL
same,AUC,"[5]; 1000 mg, AUC0-day7",9710 µg·h/mL
same,AUC,"[5]; 1000 mg, AUC0-day14",15300 µg·h/mL
same,AUC(0-inf),[5]; 1000 mg,27000 µg·h/mL
same,AUC,"[5]; 1000 mg, AUC7",13400 µg·h/mL
same,AUC,"[5]; 1000 mg, AUC 14",~22000 µg·h/mL
same,AUC,"[5]; 1000 mg, AUC14",17700 µg·h/mL
same,AUC,"[5]; 1000 mg, AUC42",23100 µg·h/mL
same,clearance,[5]; 1000 mg,0.627 mL/min
same,Cmax,[5]; 1000 mg,340 µg/mL
same,Vd,[5]; 1000 mg,16.5 L
same,AUC,"[5]; 1120 mg, AUC",25800 µg·h/mL
same,AUC,"[5]; 1120 mg, AUC0-day7",13600 µg·h/mL
same,AUC,"[5]; 1120 mg, AUC0-day14",20200 µg·h/mL
same,AUC(0-inf),[5]; 1120 mg,25800 µg·h/mL
same,AUC,"[5]; 1120 mg, AUC7",13600 µg·h/mL
same,AUC,"[5]; 1120 mg, AUC14",20200 µg·h/mL
same,clearance,[5]; 1120 mg,0.728 mL/min
same,Cmax,[5]; 1120 mg,325 µg/mL
same,Vd,[5]; 1120 mg,8.49 L
same,clearance,[6]; CL,0.777 mL/min
same,Vd,[6]; Vss,18.1 L
same,time of peak levels,[7],4 to 6 h
same,1 Log Kill f24AUC/MBC,"[8]; MRSA, q 24 h regimen",109
same,1 Log Kill f24AUC/MIC,"[8]; MRSA, q 24 h regimen",452
same,1 Log Kill mg/kg/24 h,"[8]; MRSA, q 24 h regimen",45.3 mg/kg/24 h
same,2 Log Kill f24AUC/MBC,"[8]; MRSA, q 24 h regimen",125
same,2 Log Kill f24AUC/MIC,"[8]; MRSA, q 24 h regimen",519
same,2 Log Kill mg/kg/24 h,"[8]; MRSA, q 24 h regimen",53.5 mg/kg/24 h
same,Static Effect f24AUC/MBC,"[8]; MRSA, q 24 h regimen",90
same,Static Effect f24AUC/MIC,"[8]; MRSA, q 24 h regimen",374
same,Static Effect mg/kg/24 h,"[8]; MRSA, q 24 h regimen",37.7 mg/kg/24 h
same,1 Log Kill f24AUC/MBC,"[8]; MRSA, q 72 h regimen",48.8
same,1 Log Kill f24AUC/MIC,"[8]; MRSA, q 72 h regimen",202
same,1 Log Kill mg/kg/24 h,"[8]; MRSA, q 72 h regimen",62 mg/kg/24 h
same,2 Log Kill f24AUC/MBC,"[8]; MRSA, q 72 h regimen",70
same,2 Log Kill f24AUC/MIC,"[8]; MRSA, q 72 h regimen",292
same,2 Log Kill mg/kg/24 h,"[8]; MRSA, q 72 h regimen",85 mg/kg/24 h
same,Static Effect f24AUC/MBC,"[8]; MRSA, q 72 h regimen",35.3
same,Static Effect f24AUC/MIC,"[8]; MRSA, q 72 h regimen",147
same,Static Effect mg/kg/72 h,"[8]; MRSA, q 72 h regimen",43 mg/kg/72 h
same,1 Log Kill f24AUC/MBC,[8]; [9],86.6 ± 27.6
same,1 Log Kill f24AUC/MIC,[8]; [9],268 ± 119
same,1 Log Kill mg/kg/24 h,[8]; [9],43.7 ± 9.5 mg/kg/24 h
same,2 Log Kill f24AUC/MBC,[8]; [9],110 ± 42
same,2 Log Kill f24AUC/MIC,[8]; [9],332 ± 131
same,2 Log Kill mg/kg/24 h,[8]; [9],55 ± 14 mg/kg/24 h
same,Static Effect f24AUC/MBC,[8]; [9],101 ± 72
same,Static Effect f24AUC/MIC,[8]; [9],265 ± 143
same,Static Effect mg/kg/24 h,[8]; [9],37.1 ± 9.1 mg/kg/24 h
same,1 Log Kill f24AUC/MBC,[8]; [10],75.9 ± 45.2
same,1 Log Kill f24AUC/MIC,[8]; [10],213 ± 8.14
same,1 Log Kill mg/kg/24 h,[8]; [10],94 ± 46 mg/kg/24 h
same,2 Log Kill f24AUC/MBC,[8]; [10],101 ± 61
same,2 Log Kill f24AUC/MIC,[8]; [10],266 ± 88
same,2 Log Kill mg/kg/24 h,[8]; [10],120 ± 54 mg/kg/24 h
same,Static Effect f24AUC/MBC,[8]; [10],55 ± 31
same,Static Effect f24AUC/MIC,[8]; [10],160 ± 67
same,Static Effect mg/kg/72 h,[8]; [10],72 ± 41 mg/kg/72 h
same,1 Log Kill f24AUC/MBC,"[8]; SA25923, q 24 h regimen",60
same,1 Log Kill f24AUC/MIC,"[8]; SA25923, q 24 h regimen",250
same,1 Log Kill mg/kg/24 h,"[8]; SA25923, q 24 h regimen",51.2 mg/kg/24 h
same,2 Log Kill f24AUC/MBC,"[8]; SA25923, q 24 h regimen",69.3
